Experiments:
[1] = target: T1, VEGFR2 (Homo sapiens, UniProt P35968); assay: Kinome screen, VEGFR2; format: binding; conditions: screened at 1 μM
T1 construct: made in house; host or cells: T7 phage in E. coli (BL21-derived) or HEK-293
Protocol: (§1) Kinase-tagged T7 phage strains were grown in parallel in 24-well blocks in an E. coli host derived from the BL21 strain. E. coli were grown to log-phase and infected with T7 phage from a frozen stock (multiplicity of infection=0.4) and incubated with shaking at 32° C. until lysis (90-150 minutes). The lysates were centrifuged (6,000×g) and filtered (0.2 μm) to remove cell debris. The remaining kinases were produced in HEK-293 cells and subsequently tagged with DNA for qPCR detection.
(§2) Streptavidin-coated magnetic beads were treated with biotinylated small molecule ligands for 30 minutes at room temperature to generate affinity resins for kinase assays. The liganded beads were blocked with excess biotin and washed with blocking buffer (SeaBlock (Pierce), 1% BSA, 0.05% Tween 20, 1 mM DTT) to remove unbound ligand and to reduce non-specific phage binding. […] Test compounds were prepared as 40× stocks in 100% DMSO and directly diluted into the assay. All reactions were performed in polypropylene 384-well plates in a final volume of 0.04 ml. […] The beads were then re-suspended in elution buffer (1×PBS, 0.05% Tween 20, 0.5 μM non-biotinylated affinity ligand) and incubated at room temperature with shaking for 30 minutes. The kinase concentration in the eluates was measured by qPCR.

[2] = system: IFNγ induced pSTAT1; assay: Pharmacodynamic assay: inhibition of IFNγ-induced pSTAT1 in rabbit eyes; format: in vivo; conditions: rabbits
Protocol: The ability of a single intravitreal administration of test compound to inhibit interferon-gamma (IFNγ) induced phosphorylation of STAT1 protein (pSTAT1) was measured in rabbit retina/choroid tissue.
A suspension formulation was prepared by combining compound 1 of Example 2 (Form 1), with 0.5% hydroxypropyl methylcellulose (HPMC E5), 0.02% Tween 80, and 9 mg/mL sodium chloride in purified water to attain a target concentration of 20 mg/mL.
Male, New Zealand White rabbits (Liveon Biolabs, India) were used for the studies. Animals were acclimated after arrival at the research facilities (Jubilant Biosys Ltd., India). Each rabbit was given a total of two intravitreal (IVT) injections with a total dose volume of 50 μL per eye. The first IVT injection (45 μL per eye) delivered 0.9 mg of test compound or vehicle. […] On the day of the injections, rabbits were anesthetized with an intramuscular injection of ketamine (35 mg/kg) and xylazine (5 mg/kg). Once deeply anesthetized, each eye was rinsed with sterile saline and IVT injections were performed using a 0.5 mL insulin syringe (50 units=0.5 mL) with a 31-gauge needle at the supra-nasal side of the both eyes by marking the position with a Braunstein fixed caliper (2¾″) 3.5 mm from the rectus muscle and 4 mm from the limbus.
Tissues were collected 2 hours after the second IVT injection with IFNγ. Retina/choroid tissues (R/C) were collected and homogenized, and pSTAT1 levels were measured by quantitative Western Blot on the ProteinSimple WES instrument. The percent inhibition of IFNγ-induced pSTAT1 was calculated in comparison to the vehicle/vehicle and vehicle/IFNγ groups.
Male, New Zealand White rabbits (Liveon Biolabs, India) were used for the studies. Animals were acclimated after arrival at the research facilities (Jubilant Biosys Ltd., India). Each rabbit was given a total of two intravitreal (IVT) injections with a total dose volume of 50 μL per eye. The first IVT injection (45 μL per eye) delivered 500 μg, 150 μg, or 50 μg of test compound or vehicle. Two weeks later, a second IVT injection (5 μL per eye) delivered IFNγ (1 μg/eye; stock solution 1 mg/mL; Kingfisher Biotech) or vehicle for the induction of IP-10. On the day of the injections, rabbits were anesthetized with an intramuscular injection of ketamine (35 mg/kg) and xylazine (5 mg/kg). Once deeply anesthetized, each eye was rinsed with sterile saline and IVT injections were performed using a 0.5 mL insulin syringe (50 units=0.5 mL) with a 31-gauge needle at the supra-nasal side of the both eyes by marking the position with a Braunstein fixed caliper (2¾″) 3.5 mm from the rectus muscle and 4 mm from the limbus.

[3] = target: T2, SYK (Homo sapiens, UniProt P43405); assay: Kinome screen, SYK; format: binding; conditions: screened at 1 μM
T2 construct: made in house; host or cells: T7 phage in E. coli (BL21-derived) or HEK-293
Protocol: as §1, §2

T1 sequence (P35968 20-1356): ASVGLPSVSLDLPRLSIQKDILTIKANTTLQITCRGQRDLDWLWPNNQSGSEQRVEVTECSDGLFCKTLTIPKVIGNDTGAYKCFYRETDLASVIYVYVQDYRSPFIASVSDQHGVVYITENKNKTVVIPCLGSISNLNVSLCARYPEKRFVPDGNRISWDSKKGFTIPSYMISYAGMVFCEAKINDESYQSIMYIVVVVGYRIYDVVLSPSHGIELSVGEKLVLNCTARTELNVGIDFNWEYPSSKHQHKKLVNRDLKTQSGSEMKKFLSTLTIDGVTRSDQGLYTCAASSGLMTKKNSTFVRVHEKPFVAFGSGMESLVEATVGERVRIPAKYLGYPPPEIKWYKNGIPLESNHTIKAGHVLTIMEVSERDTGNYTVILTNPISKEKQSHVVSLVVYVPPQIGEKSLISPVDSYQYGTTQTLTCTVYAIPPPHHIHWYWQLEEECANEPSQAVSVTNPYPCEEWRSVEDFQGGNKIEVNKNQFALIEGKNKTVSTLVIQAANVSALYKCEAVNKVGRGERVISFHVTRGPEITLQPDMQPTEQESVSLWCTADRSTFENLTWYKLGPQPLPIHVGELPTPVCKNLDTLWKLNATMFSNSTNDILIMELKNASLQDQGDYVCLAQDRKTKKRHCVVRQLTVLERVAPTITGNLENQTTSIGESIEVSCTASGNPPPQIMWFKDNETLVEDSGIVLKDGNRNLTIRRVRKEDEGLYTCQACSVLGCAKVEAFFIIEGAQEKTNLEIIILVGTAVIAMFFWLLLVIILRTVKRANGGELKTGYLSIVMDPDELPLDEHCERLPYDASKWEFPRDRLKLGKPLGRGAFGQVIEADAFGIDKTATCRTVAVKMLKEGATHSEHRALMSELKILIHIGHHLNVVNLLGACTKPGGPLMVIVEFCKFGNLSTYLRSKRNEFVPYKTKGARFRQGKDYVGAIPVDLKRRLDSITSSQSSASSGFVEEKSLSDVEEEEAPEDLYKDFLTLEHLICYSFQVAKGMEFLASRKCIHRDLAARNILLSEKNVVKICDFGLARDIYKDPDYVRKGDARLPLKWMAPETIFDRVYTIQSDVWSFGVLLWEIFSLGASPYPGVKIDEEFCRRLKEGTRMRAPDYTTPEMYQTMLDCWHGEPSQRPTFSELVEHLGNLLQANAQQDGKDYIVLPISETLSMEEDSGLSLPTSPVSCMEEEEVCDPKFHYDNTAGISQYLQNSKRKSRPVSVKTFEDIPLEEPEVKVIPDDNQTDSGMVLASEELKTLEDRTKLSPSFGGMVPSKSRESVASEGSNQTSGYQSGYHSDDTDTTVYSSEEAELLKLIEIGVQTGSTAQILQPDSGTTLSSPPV

Q: Which results are given for CCc1cc(O)c(F)cc1-c1cc(F)c2c(-c3nc4c([nH]3)CCN(C(=O)CN3CCOCC3)C4)n[nH]c2c1 [Compound 1, 1-(2-(6-(2-ethyl-5-fluoro-4-hydroxyphenyl)-4-fluoro-1H-indazol-3-yl)-1,4,6,7-tetrahydro-5H-imidazo[4,5-c]pyridin-5-yl)-2-morpholinoethan-1-one]?
A: inhibition at 1 µM [1]: 42%; inhibition of IFNγ-induced pSTAT1 in retina/choroid ([2]; Form 1 suspension, 0.9 mg intravitreal, 1 week pre-treatment): 85%; inhibition of IFNγ-induced pSTAT1 in retina/choroid ([2]; Form 1 suspension, single intravitreal dose, 3 month pre-treatment): 76%; inhibition of IFNγ-induced pSTAT1 in retina/choroid ([2]; Form 2 suspension, 50 μg intravitreal, 2 week pre-treatment): 61%; inhibition of IFNγ-induced pSTAT1 in retina/choroid ([2]; Form 2 suspension, 150 μg intravitreal, 2 week pre-treatment): 58%; inhibition of IFNγ-induced pSTAT1 in retina/choroid ([2]; Form 2 suspension, 500 μg intravitreal, 2 week pre-treatment): 79%; inhibition at 1 µM [3]: 46%
